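Protocol summary: plate cells (96-well), add compound at 5 concentrations, incubate 48 h, interpolate endpoints linearly. Abbreviation: GI50, concentration required for 50% inhibition of growth.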 Active and inactive are the calls of the source. No stated cut-off is given here; in the data, active = GI50 up to about 1.1 µM and inactive = higher.
Assays:
Experiment in all cases: NCI anticancer screen, dose series, 48 h
CCRF-CEM = test system: CCRF-CEM
CAKI-1 = test system: CAKI-1
OVCAR-3 = test system: OVCAR-3
MDA-MB-231 = test system: MDA-MB-231
HOP-62 = test system: HOP-62
SNB-19 = test system: SNB-19
MDA-MB-435 = test system: MDA-MB-435
Malme-3M = test system: Malme-3M
SF-539 = test system: SF-539
HL-60 = test system: HL-60
T47D = test system: T47D
EKVX = test system: EKVX
SK-MEL-5 = test system: SK-MEL-5
HCT-116 = test system: HCT-116
NCI/ADR-RES = test system: NCI/ADR-RES
Hs-578T = test system: Hs-578T
MCF7 = test system: MCF7
HCC 2998 = test system: HCC 2998
NCI-H522 = test system: NCI-H522

SMILES	GI50 (CCRF-CEM)	GI50 (CAKI-1)	GI50 (OVCAR-3)	GI50 (MDA-MB-231)	GI50 (HOP-62)	GI50 (SNB-19)	GI50 (MDA-MB-435)	GI50 (Malme-3M)	GI50 (SF-539)	GI50 (HL-60)	GI50 (T47D)	GI50 (EKVX)	GI50 (SK-MEL-5)	GI50 (HCT-116)	GI50 (NCI/ADR-RES)	GI50 (Hs-578T)	GI50 (MCF7)	GI50 (HCC 2998)	GI50 (NCI-H522)
O=C(NCCCc1cn[nH]c(=O)n1)c1cccc2nc3ccccc3nc12	> 100 µM (inactive)	> 100 µM (inactive)	> 100 µM (inactive)	27.8 µM (inactive)	47.8 µM (inactive)	> 100 µM (inactive)	> 100 µM (inactive)	36.5 µM (inactive)	> 100 µM (inactive)	> 100 µM (inactive)	> 100 µM (inactive)	> 100 µM (inactive)	> 100 µM (inactive)	42 µM (inactive)	> 100 µM (inactive)	> 100 µM (inactive)	> 100 µM (inactive)	> 100 µM (inactive)	–
CC(C)(C)C=C=C(C(C)(C)C)P(=O)(O)O	–	> 100 µM (inactive)	> 100 µM (inactive)	–	> 100 µM (inactive)	> 100 µM (inactive)	> 100 µM (inactive)	> 100 µM (inactive)	> 100 µM (inactive)	> 100 µM (inactive)	> 100 µM (inactive)	> 100 µM (inactive)	> 100 µM (inactive)	> 100 µM (inactive)	> 100 µM (inactive)	> 100 µM (inactive)	–	> 100 µM (inactive)	> 100 µM (inactive)
Cc1cn(C2CC(N)C(CN)O2)c(=O)[nH]c1=O (stereo unspecified)	> 100 µM (inactive)	> 100 µM (inactive)	> 100 µM (inactive)	–	> 100 µM (inactive)	> 100 µM (inactive)	> 100 µM (inactive)	> 100 µM (inactive)	> 100 µM (inactive)	> 100 µM (inactive)	37.8 µM (inactive)	> 100 µM (inactive)	> 100 µM (inactive)	> 100 µM (inactive)	> 100 µM (inactive)	> 100 µM (inactive)	> 100 µM (inactive)	> 100 µM (inactive)	> 100 µM (inactive)
CC(C)(/C=N\O)NO	> 10 µM (inactive)	> 10 µM (inactive)	> 10 µM (inactive)	> 10 µM (inactive)	> 10 µM (inactive)	> 10 µM (inactive)	> 10 µM (inactive)	> 10 µM (inactive)	–	> 10 µM (inactive)	> 10 µM (inactive)	> 10 µM (inactive)	–	> 10 µM (inactive)	> 10 µM (inactive)	–	> 10 µM (inactive)	> 10 µM (inactive)	> 10 µM (inactive)
COc1cccc(C2c3cc4c(cc3OC(N3CCCC3)C2C)OCO4)c1 (stereo unspecified)	0.513 µM (active)	2.12 µM (inactive)	7.48 µM (inactive)	–	4.63 µM (inactive)	11.4 µM (inactive)	2.7 µM (inactive)	–	8.69 µM (inactive)	–	5.16 µM (inactive)	21.3 µM (inactive)	5.53 µM (inactive)	4.76 µM (inactive)	4.53 µM (inactive)	8.3 µM (inactive)	5.85 µM (inactive)	11.9 µM (inactive)	3.92 µM (inactive)
O=C1c2c(ccc3c2CCCC3)CC1Cc1ccc2c(c1)CCCC2 (stereo unspecified)	21.3 µM (inactive)	–	> 100 µM (inactive)	37.2 µM (inactive)	87.7 µM (inactive)	> 100 µM (inactive)	34 µM (inactive)	54.8 µM (inactive)	> 100 µM (inactive)	5.46 µM (inactive)	0.787 µM (active)	45.5 µM (inactive)	22.6 µM (inactive)	25.5 µM (inactive)	–	20 µM (inactive)	27.2 µM (inactive)	34.6 µM (inactive)	–
NC1=NC2=c3ccccc3=C(c3cnccn3)C2(c2cnccn2)c2ccccc21 (stereo unspecified)	89.7 µM (inactive)	42.8 µM (inactive)	13.8 µM (inactive)	–	> 100 µM (inactive)	48.2 µM (inactive)	–	49.9 µM (inactive)	80.5 µM (inactive)	52.8 µM (inactive)	–	44.7 µM (inactive)	34 µM (inactive)	76.9 µM (inactive)	–	–	–	> 100 µM (inactive)	49.5 µM (inactive)
CCOC(=O)c1c(NC(=S)Nc2ccc(C)cc2)sc2c1CCN(C)C2	> 100 µM (inactive)	> 100 µM (inactive)	> 100 µM (inactive)	> 100 µM (inactive)	> 100 µM (inactive)	> 100 µM (inactive)	–	–	> 100 µM (inactive)	94.6 µM (inactive)	> 100 µM (inactive)	> 100 µM (inactive)	> 100 µM (inactive)	> 100 µM (inactive)	> 100 µM (inactive)	> 100 µM (inactive)	> 100 µM (inactive)	–	–
O=c1c2cc(I)ccc2nc(-c2cccs2)n1/N=C/c1ccccc1	> 100 µM (inactive)	> 100 µM (inactive)	> 100 µM (inactive)	–	> 100 µM (inactive)	> 100 µM (inactive)	> 100 µM (inactive)	–	> 100 µM (inactive)	> 100 µM (inactive)	80.5 µM (inactive)	> 100 µM (inactive)	> 100 µM (inactive)	> 100 µM (inactive)	> 100 µM (inactive)	–	> 100 µM (inactive)	> 100 µM (inactive)	> 100 µM (inactive)
Brc1ccc(C2(N3CCCCC3)CCCCC2)s1	18.3 µM (inactive)	> 100 µM (inactive)	38.7 µM (inactive)	32 µM (inactive)	57.5 µM (inactive)	73.1 µM (inactive)	23.9 µM (inactive)	29.3 µM (inactive)	–	19.4 µM (inactive)	11.9 µM (inactive)	76.6 µM (inactive)	0.561 µM (active)	> 100 µM (inactive)	–	36.1 µM (inactive)	30.9 µM (inactive)	15.7 µM (inactive)	27.3 µM (inactive)
COC(=O)CCC12CCC(O1)c1ccccc12 (stereo unspecified)	> 100 µM (inactive)	> 100 µM (inactive)	–	> 100 µM (inactive)	> 100 µM (inactive)	> 100 µM (inactive)	> 100 µM (inactive)	–	> 100 µM (inactive)	> 100 µM (inactive)	> 100 µM (inactive)	> 100 µM (inactive)	> 100 µM (inactive)	> 100 µM (inactive)	> 100 µM (inactive)	–	> 100 µM (inactive)	> 100 µM (inactive)	> 100 µM (inactive)
O=C1CSC(c2c[nH]c3ccccc23)N1c1ccc(Cl)cc1 (stereo unspecified)	–	–	> 100 µM (inactive)	> 100 µM (inactive)	> 100 µM (inactive)	> 100 µM (inactive)	> 100 µM (inactive)	–	> 100 µM (inactive)	> 100 µM (inactive)	> 100 µM (inactive)	59.7 µM (inactive)	> 100 µM (inactive)	> 100 µM (inactive)	> 100 µM (inactive)	> 100 µM (inactive)	> 100 µM (inactive)	> 100 µM (inactive)	–
CN=[S+]([O-])(c1ccccc1)c1ccccc1	> 100 µM (inactive)	> 100 µM (inactive)	> 100 µM (inactive)	–	> 100 µM (inactive)	> 100 µM (inactive)	–	> 100 µM (inactive)	> 100 µM (inactive)	> 100 µM (inactive)	–	> 100 µM (inactive)	> 100 µM (inactive)	> 100 µM (inactive)	–	–	–	> 100 µM (inactive)	> 100 µM (inactive)
O=C(CN1CCCC1)Nc1ccc2c(c1)C1Oc3ccccc3CC1CO2 (stereo unspecified)	47.2 µM (inactive)	49.3 µM (inactive)	57.5 µM (inactive)	22.9 µM (inactive)	19.7 µM (inactive)	–	22.2 µM (inactive)	16.7 µM (inactive)	18.8 µM (inactive)	46.6 µM (inactive)	40.1 µM (inactive)	69.3 µM (inactive)	14.6 µM (inactive)	33 µM (inactive)	73.3 µM (inactive)	–	17.3 µM (inactive)	16.8 µM (inactive)	32.4 µM (inactive)
CCOC1=C/C(=N\Nc2ccc([N+](=O)[O-])cc2)CCC1	–	28.8 µM (inactive)	29.9 µM (inactive)	27.9 µM (inactive)	37.5 µM (inactive)	34.7 µM (inactive)	16.8 µM (inactive)	96.2 µM (inactive)	48.1 µM (inactive)	13.6 µM (inactive)	–	87.9 µM (inactive)	18.9 µM (inactive)	41.7 µM (inactive)	30.1 µM (inactive)	38.5 µM (inactive)	18.3 µM (inactive)	–	4.45 µM (inactive)
Nc1nc(N)c(/N=N/c2ccc(C(=O)O)c(O)c2)c(N)n1	> 100 µM (inactive)	> 100 µM (inactive)	10.4 µM (inactive)	> 100 µM (inactive)	> 100 µM (inactive)	> 100 µM (inactive)	> 100 µM (inactive)	> 100 µM (inactive)	> 100 µM (inactive)	–	–	91.6 µM (inactive)	> 100 µM (inactive)	> 100 µM (inactive)	> 100 µM (inactive)	> 100 µM (inactive)	61.4 µM (inactive)	–	26.8 µM (inactive)
Cc1ccc([S+]([O-])C[C@@]2(C(F)F)NC(=O)NC2=O)cc1 (stereo partly specified)	> 100 µM (inactive)	> 100 µM (inactive)	> 100 µM (inactive)	> 100 µM (inactive)	> 100 µM (inactive)	> 100 µM (inactive)	> 100 µM (inactive)	> 100 µM (inactive)	–	> 100 µM (inactive)	> 100 µM (inactive)	> 100 µM (inactive)	> 100 µM (inactive)	> 100 µM (inactive)	> 100 µM (inactive)	> 100 µM (inactive)	–	> 100 µM (inactive)	> 100 µM (inactive)

Reference: ChEMBL document CHEMBL1201862, “PubChem BioAssay data set” (2004)
